Like-named read-outs stand apart in the source and are kept apart here. Numbered stars: 1 amine (or outer) side, 2 acyl side, 3 side chain; on linkers, the order of the positions; unused ones are H or OH. Square brackets hold non-standard residues; d marks the D form. Side chains are listed from the residue outwards. Peptide text beside a SMILES is read from it. * marks the point of attachment. Bip = N[C@@H](Cc1ccc(-c2ccccc2)cc1)C(=O)O; C18 diacid = O=C(O)CCCCCCCCCCCCCCCCC(=O)*; Hydrocinnamoyl(4-I) = O=C(CCc1ccc(I)cc1)*; X1 = C[C@@](CCc1ccccc1)(N[*:1])C(=O)[*:2]; X2 = O=C(CCc1ccc(I)cc1)N[C@@H](CN*)C(=O)O; αMePhe(2-F) = C[C@](N)(Cc1ccccc1F)C(=O)O; γGlu = O=C(O)[C@H](CCC(=O)[*:2])N[*:1]; Phe(2-F) = N[C@@H](Cc1ccccc1F)C(=O)O; hPhe = N[C@@H](CCc1ccccc1)C(=O)O; αMeP = C[C@@]1(C(=O)O)CCCN1; AEEA = NCCOCCOCC(=O)O; Aib = CC(C)(N)C(=O)O

This test has as its target T1, hGLP1 receptor (Homo sapiens, UniProt P43220).
T1 construct: expressed in transfected cells; host or cells: HEK (human embryonic kidney) cells co-expressing hGLP1 receptor and CRE-Luciferase
The experiment in a line: cAMP HTRF agonist assay in HEK cells co-expressing hGLP1 receptor and CRE-Luciferase. The test is classed as cell-based. The method in brief: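 HEK cells co-expressing hGLP1R and CRE-luciferase, 1000 cells/well in DPBS with 500 μM IBMX, exposed to peptides or exendin-4 reference for 30 min; 11-point 1:3 series from top 1.0 μM. cAMP measured by HTRF (665/615 nm) after 1 h at room temperature; EC50 from 4-parameter logistic fit.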
On the technique in general: TR-FRET usually uses a lanthanide donor and a delayed reading to cut background.

[1] abbreviates: cAMP EC50, nM (0.1% albumin), Table 6, 0.1% albumin.
Setting [2] is: cAMP EC50, nM (0.1% albumin), Table 4, 0.1% albumin.
[3] abbreviates: cAMP EC50, nM (0.1% albumin), Table 3, 0.1% albumin.
Where [4] appears, read: cAMP EC50, nM (0.1% albumin), Table 2, 0.1% albumin.

T1 sequence (P43220 24-463): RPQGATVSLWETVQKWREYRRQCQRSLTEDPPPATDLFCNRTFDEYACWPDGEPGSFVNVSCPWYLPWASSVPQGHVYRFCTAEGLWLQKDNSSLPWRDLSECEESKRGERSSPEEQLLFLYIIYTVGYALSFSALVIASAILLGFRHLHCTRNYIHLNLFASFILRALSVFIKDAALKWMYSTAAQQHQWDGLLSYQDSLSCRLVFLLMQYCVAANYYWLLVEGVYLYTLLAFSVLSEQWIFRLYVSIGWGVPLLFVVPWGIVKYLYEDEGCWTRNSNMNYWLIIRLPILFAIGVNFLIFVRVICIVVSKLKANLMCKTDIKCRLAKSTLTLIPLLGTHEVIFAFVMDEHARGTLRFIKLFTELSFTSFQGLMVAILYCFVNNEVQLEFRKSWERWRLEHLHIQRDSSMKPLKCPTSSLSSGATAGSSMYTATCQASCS

`C[C@@H](O)[C@H](NC(=O)CNC(=O)[C@H](CCC(=O)O)NC(=O)[C@]1(C)CCCN1C(=O)[C@@H](N)Cc1c[nH]cn1)C(=O)N[C@@](C)(Cc1ccccc1F)C(=O)N[C@H](C(=O)N[C@@H](CO)C(=O)N[C@@H](CC(=O)O)C(=O)N[C@@H](Cc1ccc(-c2ccccc2)cc1)C(=O)N[C@@H](Cc1ccc(-c2ccccc2)cc1)C(=O)N[C@@H](CCCCNC(=O)COCCOCCNC(=O)COCCOCCNC(=O)CC[C@H](NC(=O)CCCCCCCCCCCCCCCCC(=O)O)C(=O)O)C(N)=O)[C@@H](C)O` [4-61, H2N-His-α-MePro-Glu-Gly-Thr-α-MePhe(2-F)-Thr-Ser-Asp-Bip-Bip-C(O)NH-RY17] (H-H[αMeP]EGT[αMePhe(2-F)]TSD[Bip][Bip]K([AEEA-AEEA-γGlu-C18 diacid])-NH2) gave an EC50 under setting [1] of 272 nM.

Take `C[C@@H](O)[C@H](NC(=O)CNC(=O)[C@H](CCC(=O)O)NC(=O)C(C)(C)NC(=O)[C@@H](N)Cc1c[nH]cn1)C(=O)N[C@@](C)(Cc1ccccc1F)C(=O)N[C@H](C(=O)N[C@@H](CO)C(=O)N[C@@H](CC(=O)O)C(=O)N[C@@H](Cc1ccc(-c2ccccc2)cc1)C(=O)N[C@@H](CCc1ccccc1)C(=O)NCCOCCOCC(=O)NCCOCCOCC(N)=O)[C@@H](C)O` [4-35, H2N-His-Aib-Glu-Gly-Thr-α-MePhe(2-F)-Thr-Ser-Asp-Bip-Hph-C(O)NH-RY1] (H-H[Aib]EGT[αMePhe(2-F)]TSD[Bip][hPhe][AEEA][AEEA]-NH2): under setting [1], the concentration for a half-maximal effect (EC50) stood at 67.2 nM.

As for `C[C@@H](O)[C@H](NC(=O)CNC(=O)[C@H](CCC(=O)O)NC(=O)C(C)(C)NC(=O)[C@H](Cc1c[nH]cn1)NC(=O)[C@@H](N)Cc1c[nH]c2ccccc12)C(=O)N[C@@H](Cc1ccccc1)C(=O)N[C@H](C(=O)N[C@@H](CO)C(=O)N[C@@H](CC(=O)O)C(=O)N[C@@H](Cc1ccc(-c2ccccc2)cc1)C(=O)N[C@@H](Cc1ccc(-c2ccccc2)cc1)C(N)=O)[C@@H](C)O` [2-5, H2N-Trp-His-Aib-Glu-Gly-Thr-Phe-Thr-Ser-Asp-Bip-Bip-C(O)NH2] (H-WH[Aib]EGTFTSD[Bip][Bip]-NH2), the response under setting [2] was half-maximal at 10.9 nM (EC50).

Compound `C[C@@H](O)[C@H](NC(=O)CNC(=O)[C@H](CCC(=O)O)NC(=O)C(C)(C)NC(=O)[C@@H](N)Cc1c[nH]cn1)C(=O)N[C@@](C)(Cc1ccccc1F)C(=O)NC(C)(C)C(=O)N[C@@H](CO)C(=O)N[C@@H](CC(=O)O)C(=O)N[C@@H](Cc1ccc(-c2ccccc2)cc1)C(=O)N[C@@H](Cc1ccc(-c2ccccc2)cc1)C(N)=O` [3-35, H2N-His-Aib-Glu-Gly-Thr-αMePhe(2-F)-Aib-Ser-Asp-Bip-Bip-C(O)NH2] (H-H[Aib]EGT[αMePhe(2-F)][Aib]SD[Bip][Bip]-NH2) gave an EC50 under setting [3] of 91.4 nM.

Regarding `C[C@H](NC(=O)[C@@H](NC(=O)[C@H](Cc1ccccc1F)NC(=O)[C@@H](NC(=O)CNC(=O)[C@H](CCC(=O)O)NC(=O)C(C)(C)NC(=O)[C@@H](N)Cc1c[nH]cn1)[C@@H](C)O)[C@@H](C)O)C(=O)N[C@@H](CC(=O)O)C(=O)N[C@@H](Cc1ccc(-c2ccccc2)cc1)C(=O)N[C@@H](Cc1ccc(-c2ccccc2)cc1)C(N)=O` [3-26, H2N-His-Aib-Glu-Gly-Thr-Phe(2-F)-Thr-Ala-Asp-Bip-Bip-C(O)NH2] (H-H[Aib]EGT[Phe(2-F)]TAD[Bip][Bip]-NH2), under setting [4], the concentration giving a half-maximal response (EC50) came to 18.9 nM.

The compound `C[C@H](N)C(=O)NC(C)(C)C(=O)N[C@@H](CCC(=O)O)C(=O)NCC(=O)N[C@H](C(=O)N[C@@H](Cc1ccccc1F)C(=O)N[C@H](C(=O)N[C@@H](CO)C(=O)N[C@@H](CC(=O)O)C(=O)N[C@@H](Cc1ccc(-c2ccccc2)cc1)C(=O)N[C@@H](Cc1ccc(-c2ccccc2)cc1)C(N)=O)[C@@H](C)O)[C@@H](C)O` [3-20, H2N-Ala-Aib-Glu-Gly-Thr-Phe(2-F)-Thr-Ser-Asp-Bip-Bip-C(O)NH2] (H-A[Aib]EGT[Phe(2-F)]TSD[Bip][Bip]-NH2) gave an EC50 under setting [4] of 66 nM.

As for `C[C@@H](O)[C@H](NC(=O)CNC(=O)[C@H](CCC(=O)O)NC(=O)C(C)(C)NC(=O)[C@@H](N)Cc1c[nH]cn1)C(=O)N[C@@](C)(Cc1ccccc1F)C(=O)N[C@H](C(=O)N[C@@H](CO)C(=O)N[C@@H](CC(=O)O)C(=O)N[C@@H](Cc1ccc(-c2ccccc2)cc1)C(=O)N[C@@](C)(CCc1ccccc1)C(N)=O)[C@@H](C)O` [4-2, H2N-His-Aib-Glu-Gly-Thr-α-MePhe(2-F)-Thr-Ser-Asp-Bip-α-MeHph-C(O)NH2] (H-H[Aib]EGT[αMePhe(2-F)]TSD[Bip][X1]-NH2), where the note is “Table 5, 0% albumin, read-out: cAMP EC50, nM (0% albumin)”, the concentration giving a half-maximal response (EC50) turned out to be 5.5 nM.

The compound `CC(C)C[C@H](NC(=O)[C@@H](N)CCC(=O)O)C(=O)NC(C)(C)C(=O)N[C@@H](CCC(=O)O)C(=O)NCC(=O)N[C@H](C(=O)N[C@@](C)(Cc1ccccc1F)C(=O)N[C@H](C(=O)N[C@@H](CO)C(=O)N[C@@H](CC(=O)O)C(=O)N[C@@H](Cc1ccc(-c2ccccc2)cc1)C(=O)N[C@@H](Cc1ccc(-c2ccccc2)cc1)C(N)=O)[C@@H](C)O)[C@@H](C)O` [2-6, H2N-Glu-Leu-Aib-Glu-Gly-Thr-α-MePhe(2-F)-Thr-Ser-Asp-Bip-Bip-C(O)NH2] (H-EL[Aib]EGT[αMePhe(2-F)]TSD[Bip][Bip]-NH2) displayed an EC50 under setting [2] of 9.2 nM.

`C[C@@H](O)[C@H](NC(=O)CNC(=O)[C@H](CCC(=O)O)NC(=O)[C@]1(C)CCCN1C(=O)[C@@H](N)Cc1c[nH]cn1)C(=O)N[C@@](C)(Cc1ccccc1F)C(=O)N[C@H](C(=O)N[C@@H](CO)C(=O)N[C@@H](CC(=O)O)C(=O)N[C@@H](Cc1ccc(-c2ccccc2)cc1)C(=O)N[C@@H](Cc1ccc(-c2ccccc2)cc1)C(=O)NC(C)(C)C(=O)NCCOCCOCC(=O)N[C@@H](CCCCNC(=O)CCc1ccc(I)cc1)C(N)=O)[C@@H](C)O` [4-68, H2N-His-α-MePro-Glu-Gly-Thr-α-MePhe(2-F)-Thr-Ser-Asp-Bip-Bip-C(O)NH-RY24] (H-H[αMeP]EGT[αMePhe(2-F)]TSD[Bip][Bip][Aib][AEEA]K(Hydrocinnamoyl(4-I))-NH2): under setting [1], the EC50 was 2.6 nM.

Under setting [3], `C[C@@H](O)[C@H](NC(=O)C(C)(C)NC(=O)[C@H](CCC(=O)O)NC(=O)C(C)(C)NC(=O)[C@@H](N)Cc1c[nH]cn1)C(=O)N[C@@](C)(Cc1ccccc1F)C(=O)N[C@H](C(=O)N[C@@H](CO)C(=O)N[C@@H](CC(=O)O)C(=O)N[C@@H](Cc1ccc(-c2ccccc2)cc1)C(=O)N[C@@H](Cc1ccc(-c2ccccc2)cc1)C(N)=O)[C@@H](C)O` [3-32, H2N-His-Aib-Glu-Aib-Thr-αMePhe(2-F)-Thr-Ser-Asp-Bip-Bip-C(O)NH2] (H-H[Aib]E[Aib]T[αMePhe(2-F)]TSD[Bip][Bip]-NH2) gave an EC50 of 15.8 nM.

Consider `C[C@H](NC(=O)[C@@H](N)Cc1c[nH]cn1)C(=O)N[C@@H](CCC(=O)O)C(=O)NCC(=O)N[C@H](C(=O)N[C@@H](Cc1ccccc1F)C(=O)N[C@H](C(=O)N[C@@H](CO)C(=O)N[C@@H](CC(=O)O)C(=O)N[C@@H](Cc1ccc(-c2ccccc2)cc1)C(=O)N[C@@H](Cc1ccc(-c2ccccc2)cc1)C(N)=O)[C@@H](C)O)[C@@H](C)O` [3-21, H2N-His-Ala-Glu-Gly-Thr-Phe(2-F)-Thr-Ser-Asp-Bip-Bip-C(O)NH2] (H-HAEGT[Phe(2-F)]TSD[Bip][Bip]-NH2), for which the EC50 under setting [4] was determined as 0.29 nM.

In the case of `C[C@@H](O)[C@H](NC(=O)CNC(=O)[C@H](CCC(=O)O)NC(=O)[C@]1(C)CCCN1C(=O)[C@@H](N)Cc1c[nH]cn1)C(=O)N[C@@](C)(Cc1ccccc1F)C(=O)N[C@H](C(=O)N[C@@H](CO)C(=O)N[C@@H](CC(=O)O)C(=O)N[C@@H](Cc1ccc(-c2ccccc2)cc1)C(=O)N[C@@H](Cc1ccc(-c2ccccc2)cc1)C(=O)NCC(=O)NCC(=O)NCC(=O)N[C@@H](CCCCNC(=O)CCc1ccc(I)cc1)C(N)=O)[C@@H](C)O` [4-67, H2N-His-α-MePro-Glu-Gly-Thr-α-MePhe(2-F)-Thr-Ser-Asp-Bip-Bip-C(O)NH-RY23] (H-H[αMeP]EGT[αMePhe(2-F)]TSD[Bip][Bip]GGGK(Hydrocinnamoyl(4-I))-NH2), the concentration for a half-maximal effect (EC50) under setting [1] stood at 2.4 nM.

Consider “H2N-His-α-MePro-Glu-Gly-Thr-α-MePhe(2-F)-Thr-Ser-Asp-FN3(C18 acid)-Bib-C(O)NH2 [4-71]”, for which the EC50 (read-out: cAMP EC50, nM (0.1% albumin), Table 6, 0.1% albumin) is 0.008 nM.

Under setting [1], `C[C@@H](O)[C@H](NC(=O)CNC(=O)[C@H](CCC(=O)O)NC(=O)[C@]1(C)CCCN1C(=O)[C@@H](N)Cc1c[nH]cn1)C(=O)N[C@@](C)(Cc1ccccc1F)C(=O)N[C@H](C(=O)N[C@@H](CO)C(=O)N[C@@H](CC(=O)O)C(=O)N[C@@H](Cc1ccc(-c2ccccc2)cc1)C(=O)N[C@@H](Cc1ccc(-c2ccccc2)cc1)C(=O)NC(C)(C)C(=O)N[C@@H](CCCCNC(=O)COCCOCCNC(=O)COCCOCCNC(=O)CC[C@H](NC(=O)CCCCCCCCCCCCCCCCC(=O)O)C(=O)O)C(N)=O)[C@@H](C)O` [4-64, H2N-His-α-MePro-Glu-Gly-Thr-α-MePhe(2-F)-Thr-Ser-Asp-Bip-Bip-C(O)NH.RY20] (H-H[αMeP]EGT[αMePhe(2-F)]TSD[Bip][Bip][Aib]K([AEEA-AEEA-γGlu-C18 diacid])-NH2) registered an EC50 of 453 nM.

Take `C[C@@H](O)[C@H](NC(=O)CNC(=O)[C@H](CCC(=O)O)NC(=O)C(C)(C)NC(=O)[C@@H](N)Cc1c[nH]cn1)C(=O)N[C@@](C)(Cc1ccccc1F)C(=O)N[C@H](C(=O)N[C@@H](CO)C(=O)N[C@@H](CC(=O)O)C(=O)N[C@@H](Cc1ccc(-c2ccccc2)cc1)C(=O)N[C@@H](CCc1ccccc1)C(=O)NCCOCCOCC(=O)NCCOCCOCC(=O)NCCOCCOCC(=O)NC[C@H](NC(=O)CCc1ccc(I)cc1)C(=O)O)[C@@H](C)O` [4-37, H2N-His-Aib-Glu-Gly-Thr-α-MePhe(2-F)-Thr-Ser-Asp-Bip-Hph-C(O)NH-RY3] (H-H[Aib]EGT[αMePhe(2-F)]TSD[Bip][hPhe][AEEA][AEEA][AEEA]-X2): where the note is “relative to parent 1-4”, the “fold lower potency than the parent peptide (1-4)” value is “equipotency”.

What is called EC50 is the midpoint of the concentration-response curve.

Source of the values: patent publication US20230015478A1, “GLP-1 RECEPTOR AGONISTS HAVING IMPROVED PHARMACOLOGICAL AND DRUG DELIVERY PROPERTIES” (priority 2021, published 2023).
